Experimental findings from patent publication US20260306460A1, “COMPOSITION FOR REMOVING AND INHIBITING SENESCENT CELLS, AND USES THEREOF” (LIFECEUTIX CO., LTD., priority 2023, published 2026) are described below.

Molecules are shown by their SMILES.

Series [1] deals with HMGN1 secreted from senescent cells. As to the kind of experiment: HMGN1 secretion (ELISA) from doxorubicin-induced senescent cells, Example 17. It counts as cell-based, human. The following applies: senescent untreated = 100%; 30 μM; 90 μM for LX-5211, 5433, 6530, 9105, 9118, 9321, 9602; 2.4 mM for LX-9336. (In general: An ELISA detects its analyte on a solid surface through an enzyme-linked reagent.)

In series [2] the test system is HMGN1 secreted from senescent A549 cells. As to the kind of experiment: HMGN1 secretion (ELISA) from senescent A549 cells, Example 18, Table 14. It counts as cell-based, human. Conditions: doxorubicin-senescent A549, without test compound (DMSO) = 100%; 30 μM (LX-5211, LX-5433, LX-6530, LX-6800, LX-9105, LX-9118, LX-9131, LX-9136, LX-9302, LX-9321, LX-9565, LX-9602 at 90 μM; LX-9336 at 2.4 mM).
Protocol: On the other hand, in cancer cells treated with doxorubicin, where senescence was induced, the amount of HMGN1 measured under conditions where cells were not treated with the test compound was calculated as 100%, and the amount of HMGN1 was measured under conditions where the senescent cancer cells were treated with the test compound.

Series [3] deals with naturally aged mice. Briefly: Anti-aging evaluation in naturally aged mice, Example 31, Table 55.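 On all read-outs here: Vehicle-dosed control mice received solution alone at matching volume, values compare test-compound-treated aged mice against that control.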 Type of series: in vivo, mouse. Conditions: for Femur Ctsk mRNA / Kidney Agtr1a mRNA / Liver IL6 mRNA / Liver MMP3 mRNA / Liver p16 mRNA / Open Field Test Time in Center: untreated = 100%; for Heart Sur2a mRNA / Joint Col2a1 mRNA / Skin Col1a1 mRNA / Skin SDF1 mRNA: untreated = 1.0; for Muscle Mass: untreated 0.64 g; for Fat Mass: untreated 0.82 g; for Cataract incidence: untreated 83%.
Protocol: After the end of drug administration, the method described in each example below was performed. […] The mRNA amounts of p16, MMP3, and IL6 after natural aging was induced were calculated as 100% and compared with the mRNA amounts of p16, MMP3, and IL6 after treatment with the test compound. In addition, an open field test for the analysis of aging-related frailty, agtr1a mRNA analysis for kidney damage and disease evaluation, col1a1 and SDF1 mRNA analysis for skin aging evaluation such as wrinkles/loss of elasticity/hyperpigmentation, col2a1 mRNA analysis for evaluating joint aging such as osteoarthritis, sur2a mRNA analysis for evaluating cardiac aging such as decreased cardiac load resistance, ctsk mRNA analysis for evaluating bone diseases due to aging such as osteoporosis, muscle tissue weight for analyzing sarcopenia, fat tissue weight for analyzing lipoatrophy, and cataract incidence analysis were performed in mice. For cataract incidence analysis, the drug was administered twice a week under the conditions specified above, and biweekly examinations were conducted until death.

Series [4] relates to bleomycin-induced pulmonary fibrosis mice. As to the kind of experiment: Bleomycin-induced pulmonary fibrosis mice, Example 31, Table 56. It counts as in vivo, mouse. Conditions: untreated = 100%. The method, boiled down:
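Mice with bleomycin-induced pulmonary fibrosis, untreated or given test compound, with vehicle-only controls. Lung tissue collected for RNA extraction and qRT-PCR analysis.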

For series [5], the system named is carbon tetrachloride-induced liver fibrosis mice. As to the kind of experiment: Carbon tetrachloride-induced liver fibrosis mice, Example 31, Table 57. Type of series: in vivo, mouse. Conditions: CCl4-induced liver fibrosis mice, untreated = 100%. An outline of the steps: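 Mice with induced hepatic fibrosis received either the test compound or, as controls, an equal volume of vehicle solution alone. Once dosing ended, liver tissue was harvested and total RNA was isolated. cDNA was synthesized from this RNA, and quantitative RT-PCR was run on it to measure hepatic mRNA levels of the fibrosis- and senescence-related genes.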

The subject of series [6] is senescent cells. As to the kind of experiment: Viability of senescent cells (CellTiter-Glo), Example 17, Table 13. The following applies: doxorubicin-induced senescent cells, 0 μM = 100. On the technique in general: In ATP-based viability assays light output follows the ATP content of the culture.
Protocol: Cells induced to undergo senescence by doxorubicin treatment were treated with test compound at designated concentrations and measured using the CellTiter-Glo Luminescent Cell Viability Assay (Promega).
Series [7] relates to senescent A549 cells. As to the kind of experiment: Viability of senescent A549 cells (CellTiter-Glo), Example 18, Table 15. Conditions: doxorubicin-induced senescent A549 cells, 0 μM = 100%.
Protocol: Senescence-induced cancer cells treated with doxorubicin were treated with the test compound at designated concentrations, and cell viability was measured using the CellTiter-Glo Luminescent Cell Viability Assay (Promega).
The subject of series [8] is naturally aged C57BL6J mice. Briefly: Geriatric depression and anxiety in aged mice, Example 21-8. Type of series: in vivo, mouse. The following applies: aged mice. From the text:
The amount of senescent-associated secretory factor (SASP) in serum and tissues collected from mice of Examples 21-5 and 21-6 was reduced by treatment with LX-5701, LX-2101, or LX-2102. It was confirmed that removing senescent cells, which increase with aging in mice, and effectively reducing the amount of senescent-associated secretory factor (SASP) can improve symptoms of geriatric depression and anxiety.

The subject of series [9] is obesity-induced aged C57BL6J mice. Briefly: Anxiety, depression, lethargy (open field test) in obesity-aged mice, Example 23-4, Table 44. It counts as in vivo, mouse. Conditions: obesity-aged mice. As for the experimental part: 15-week-old male C57BL6J mice (The Jackson Laboratory) were induced to obesity by a high-fat diet using the same method as in Example 9-1 WO2023-085787 A1. After acclimation to the experimental environment for one week, the mice were randomly assigned to experimental and control groups. […] LX-3002 was mixed in distilled water with 4% DMSO, 30% PEG300, and 5% Tween80 and administered orally at a concentration of 10 mg/kg daily for 21 days. LX-5701 was mixed in PBS and administered orally at a concentration of 360 mg/kg daily for 21 days. LX-6807 was mixed in saline and administered intraperitoneally at a concentration of 1 mg/kg daily for 21 days. The control group received only the solution in the same volume. After the end of drug administration, the methods described in each example below were performed.
It was determined that anxiety and depression caused by obesity are not causally related to increased body weight, but rather are caused by the accumulation of senescent cells. Accordingly, an activity assessment (open field test) was performed using the same method as in Example 7-7 of WO2023-085787 A1 to analyze lethargy caused by anxiety and depression caused by obesity in mice. The table below quantitatively represents activity, a criterion for assessing lethargy due to anxiety and depression, under conditions in which aging was induced by obesity and the test compound was not administered or was administered. The activity assessment after obesity-induced aging was calculated as 100% and compared with the activity assessment after test compound treatment.

On to `CCNCc1nc2c(O)c(Cl)cc(Cl)c2c(=O)n1C` [LX-9421], for which, in series [1], the HMGN1 is 201%. The compound further returned an HMGN1 in series [2] of 284%. In [3], the “Femur Ctsk mRNA” value worked out at 44%, the “Heart Sur2a mRNA” value is recorded as 2.1 fold, the “Joint Col2a1 mRNA” value came to 2.8 fold and the “Kidney Agtr1a mRNA” value stood at 46%. In series [3], the “Liver IL6 mRNA” value was 41%, the “Liver MMP3 mRNA” value was 32%, the “Liver p16 mRNA” value is on record as 57% and the “Open Field Test Time in Center” value came to 222%. In series [3], the “Skin Col1a1 mRNA” value is listed as 2.3 Fold, the “Skin SDF1 mRNA” value turned out to be 2.6 fold, the “Muscle Mass” value amounted to 0.78 g and the “Fat Mass” value worked out at 0.99 g. This compound showed a Cataract incidence in [3] of 54%. Further, in [4], the “Lung p16 mRNA” value was 35 (±1.6) % and the “Col1a1 mRNA” value is reported as 40 (±2.0) %. Also, in series [5], the “Liver p16 mRNA” value was 59 (±5.4) % and the “Col1a1 mRNA” value was 34 (±3.7) %. The “Survival (%)” value in series [6] (1.1 μM) is recorded as 92.1%. Further, the “Survival (%)” value in [6] (10 μM) is listed as 67.9%. Besides, the “Survival (%)” value in series [6] (30 μM) is listed as 25.9%. The “Survival (%)” value in [6] ([…]) was determined as 89.3%. Moreover, the “Survival (%)” value in series [7] (1.1 μM) is given as 102.9%. The “Survival (%)” value in series [7] (10 μM) worked out at 62.3%. Besides, the “Survival (%)” value in series [7] (30 μM) was 20.7%. For the same compound, the “Survival (%)” value in series [7] ([…]) worked out at 83.3%.
For `CN(CCOc1ccc(CC2SC(=O)NC2=O)cc1)c1ccccn1` (centres unmarked) [LX-9423, Rosiglitazone], the HMGN1 was determined as 227% in series [1] and 239% in series [2]. Besides, the “amount of SASP, p16, SA-β-gal, lipofuscin” value in series [8] is on record as “reduced”. Besides, the “symptoms of geriatric depression and anxiety” value in series [8] was “improved”. In addition, in [9], the geriatric depression result was “similarly improving geriatric depression”. Also, the “Survival (%)” value turned out to be 79.5% in [6] (1.1 μM); 25.4% in [6] (10 μM); 8.7% in [6] (30 μM); 71.8% in [6] ([…]); 82.1% in [7] (1.1 μM); 39.8% in series [7] (10 μM). In addition, the entries for the “Survival (%)” value in [7] (30 μM) and in series [7] ([…]) were 3.0% and 78.3%, respectively.
In the case of `COC[C@]1(CO)C(=O)[C@H]2CC[N@]1[C@H](C)C2` [LX-5731, (1R,2R,4S,6R)-2-(hydroxymethyl)-2-(methoxymethyl)-6-methylquinuclidin-3-one], in series [1], the HMGN1 was 235%. For the same compound, the HMGN1 in [2] amounted to 307%. For the same compound, in series [3], the “Femur Ctsk mRNA” value is reported as 44%, the “Heart Sur2a mRNA” value was 2.5 fold, the “Joint Col2a1 mRNA” value turned out to be 2.7 fold and the “Kidney Agtr1a mRNA” value stood at 49%. For the same compound, in [3], the “Liver IL6 mRNA” value came out at 42%, the “Liver MMP3 mRNA” value is given as 77%, the “Liver p16 mRNA” value was 58% and the “Open Field Test Time in Center” value amounted to 237%. In series [3], the “Skin Col1a1 mRNA” value worked out at 2.3 Fold, the “Skin SDF1 mRNA” value was 2.0 fold, the “Muscle Mass” value is listed as 0.71 g and the “Fat Mass” value is reported as 1.01 g. Further, in series [3], the Cataract incidence is listed as 72%. For the same compound, in [4], the “Lung p16 mRNA” value is reported as 69 (±3.7) % and the “Col1a1 mRNA” value was 62 (±13.8) %. Also, in [5], the “Liver p16 mRNA” value is recorded as 60 (±6.5) % and the “Col1a1 mRNA” value is 64 (±10.4) %. Further, the “Survival (%)” value in series [6] (1.1 μM) came to 98.8%. Further, the “Survival (%)” value in series [6] (10 μM) was 48.2%. Besides, the “Survival (%)” value in series [6] (30 μM) is 11.7%. Moreover, in series [6] ([…]), the “Survival (%)” value is reported as 89.8%. Moreover, the “Survival (%)” value in series [7] (1.1 μM) amounted to 94.4%. In series [7] (10 μM), the “Survival (%)” value was 30.6%. In addition, the “Survival (%)” value in [7] ([…]) is recorded as 83.1%.
With `CCO[C@@H](Cc1ccc(OCCn2c(C)ccc2-c2ccc(SC)cc2)cc1)C(=O)[O-].CCO[C@@H](Cc1ccc(OCCn2c(C)ccc2-c2ccc(SC)cc2)cc1)C(=O)[O-].[Mg+2]` [LX-9717, Saroglitazar Magnesium], the values for the HMGN1 in series [1] and in [2] were 226% and 231%, respectively. The “Survival (%)” value in series [6] (1.1 μM) came out at 101.2%; in [6] (10 μM), 73.5%; in series [6] (30 μM) it was 21.5%; in series [6] ([…]), 92.7%; in series [7] (1.1 μM), 94.6%; in series [7] (10 μM), 75.4%. In addition, the “Survival (%)” value was 10.4% in series [7] (30 μM) and 87.6% in series [7] ([…]).
As for `CN(CC(=O)Nc1nc2ccc(OC(F)(F)F)cc2s1)C(=O)CNC(=O)CN` [LX-6216, Troriluzole], the HMGN1 in series [1] is listed as 221%; in series [2], 237%. Further, the “Survival (%)” value in [6] (1.1 μM) came to 94.5%; in series [6] (10 μM) it was 68.8%; in series [6] (30 μM), 24.3%; in series [6] ([…]), 87.5%; in series [7] (1.1 μM), 93.8%; in [7] (10 μM), 53.1%. Further, the “Survival (%)” value in series [7] (30 μM) is reported as 14.6%; in series [7] ([…]), 87.5%.
`Nc1cc(COc2c(Cl)cc(C[C@H](N)C(=O)O)cc2Cl)c2oc(-c3ccccc3)nc2c1` [LX-6233, Nanvuranlat]: the HMGN1 in [1] turned out to be 241%; in series [2], 228%. For the same compound, the “Survival (%)” value in [6] (1.1 μM) was 83.7%; in [6] (10 μM) it was 32.7%; in series [6] (30 μM) it was 11.3%; in series [6] ([…]) it was 61.2%; in series [7] (1.1 μM), 91.8%; in series [7] (10 μM), 34.5%. Moreover, the entries for the “Survival (%)” value in series [7] (30 μM) and in series [7] ([…]) were 10.1% and 72.4%, respectively.
For `CN1CCc2c(c3ccccc3n2Cc2ccc(C(=O)NO)cc2)C1` [LX-5352, Tubastatin A], the HMGN1 in series [1] stood at 194%; in series [2], 210%. Moreover, the “Survival (%)” value in [6] (1.1 μM) turned out to be 87.9%; in [6] (10 μM), 32.4%; in series [6] (30 μM), 1.9%; in series [6] ([…]), 61.6%; in [7] (1.1 μM), 97.6%; in series [7] (10 μM) it was 51.8%. Further, the “Survival (%)” value turned out to be 22.2% in series [7] (30 μM) and 87.5% in series [7] ([…]).
On to `CCCCCCCCCCCCCCCCCCCC(=O)N[C@H]1CC[C@@]2(C)[C@@H](C1)C[C@@H](O)[C@@H]1[C@@H]2C[C@H](O)[C@]2(C)[C@@H]([C@H](C)CCC(=O)O)CC[C@@H]12` [LX-9343, Icomidocholic acid], for which the HMGN1 was 305% in series [1] and 274% in [2]. In addition, the “Survival (%)” value in series [6] (1.1 μM) stood at 101.2%; in series [6] (10 μM) it was 74.2%; in series [6] (30 μM), 30.5%; in series [6] ([…]) it was 84.2%; in [7] (1.1 μM), 103.7%; in [7] (10 μM), 74.4%. In addition, the “Survival (%)” value in series [7] (30 μM) stood at 11.9%; in series [7] ([…]), 104.0%.
With `O=C1C2=C(CCN(Cc3ccccc3)C2)N2CCN=C2N1Cc1ccc(C(F)(F)F)cc1` [LX-7263], the HMGN1 in series [1] is listed as 267%; in [2], 283%. In addition, the “Survival (%)” value stood at 49.2% in [6] (1.1 μM), 0.9% in series [6] ([…]), 53.6% in [7] (1.1 μM) and 11.1% in series [7] ([…]).
